The record followed here is ChEMBL document CHEMBL3400048, “N-acylated sulfonamide congeners of fosmidomycin lack any inhibitory activity against DXR” (Bioorg Med Chem Lett, 2015).

One series relates to MRC5. Put plainly: Cytotoxicity against human MRC5 cells at 64 uM. Particulars: mrc5, 64 µM. The class given is cell-based.
The test system of a further series is Staphylococcus aureus. The experiment in a line: Antimicrobial activity against Staphylococcus aureus at 64 uM. It is filed as functional, organism-based.
Series [1] has as its target T1, 1-deoxy-D-xylulose 5-phosphate reductoisomerase (Escherichia coli K-12) (UniProt P45568).
T1 sequence (whole entry): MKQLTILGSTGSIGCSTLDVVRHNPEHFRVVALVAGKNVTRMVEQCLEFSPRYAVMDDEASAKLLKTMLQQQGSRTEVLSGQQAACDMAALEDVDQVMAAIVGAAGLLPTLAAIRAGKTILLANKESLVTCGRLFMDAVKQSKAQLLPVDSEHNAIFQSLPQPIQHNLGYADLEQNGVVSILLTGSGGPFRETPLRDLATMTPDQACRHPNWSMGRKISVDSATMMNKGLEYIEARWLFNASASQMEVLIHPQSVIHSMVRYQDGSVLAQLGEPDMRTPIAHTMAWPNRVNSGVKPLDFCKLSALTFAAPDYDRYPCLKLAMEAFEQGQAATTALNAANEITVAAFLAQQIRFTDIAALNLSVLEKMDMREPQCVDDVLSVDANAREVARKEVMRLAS
Put plainly: Inhibition of Escherichia coli DXR activity using DXP as substrate assessed as residual activity preincubated at 100 uM for 5 mins before substrate addition measured every 3 seconds for 180 seconds by spectrophotometric assay.

Another series concerns Plasmodium falciparum. Put plainly: Antimicrobial activity against Plasmodium falciparum K1 at 64 uM. The class given is functional, organism-based.
The subject of the next series is Aspergillus fumigatus. The experiment in a line: Antimicrobial activity against Aspergillus fumigatus at 64 uM. The class given is functional, organism-based.
The next series relates to Trypanosoma cruzi. Put plainly: Antimicrobial activity against Trypanosoma cruzi at 64 uM. The class given is functional, organism-based.
The subject of the next series is Escherichia coli. The experiment in a line: Antimicrobial activity against Escherichia coli at 64 uM. The class given is functional, organism-based.
The next series relates to Candida albicans. Put plainly: Antimicrobial activity against Candida albicans at 64 uM. It is filed as functional, organism-based.
The subject of another series is Pseudomonas aeruginosa. Put plainly: Antimicrobial activity against Pseudomonas aeruginosa at 64 uM. The class given is functional, organism-based.
Another series has as its system Trypanosoma brucei. The experiment in a line: Antimicrobial activity against Trypanosoma brucei at 64 uM. It is filed as functional, organism-based.
Another series relates to Leishmania infantum. Put plainly: Antimicrobial activity against Leishmania infantum at 64 uM. It is filed as functional, organism-based.
Another series has as its system Trichophyton rubrum. Put plainly: Antimicrobial activity against Trichophyton rubrum at 64 uM. The class given is functional, organism-based.

Structures are written as SMILES. Activity calls are given as the source filed them. No cut-off for these calls is given here.

As for `CC(=O)N(O)CCCS(=O)(=O)NC(=O)Cc1ccccc1`, the Activity result in the series with MRC5 is “Non-toxic”; in [1], 100%. Further, the result with Staphylococcus aureus, with Plasmodium falciparum, in the series with Aspergillus fumigatus, with Trypanosoma cruzi, in the series on Escherichia coli and with Candida albicans was inactive. The outcome with Pseudomonas aeruginosa, in the series with Trypanosoma brucei, with Leishmania infantum and with Trichophyton rubrum was inactive.

For `CC(=O)N(O)CCCS(=O)(=O)NC(=O)c1ccccc1`, the Activity entry in the series on MRC5 is “Non-toxic”; in [1] it was 100%. For the same molecule, the result in the series on Staphylococcus aureus, with Plasmodium falciparum, in the series with Aspergillus fumigatus, in the series on Trypanosoma cruzi, with Escherichia coli and in the series on Candida albicans was inactive. For the same molecule, the outcome with Pseudomonas aeruginosa, in the series on Trypanosoma brucei, in the series on Leishmania infantum and in the series on Trichophyton rubrum was inactive.

For the molecule `CC(=O)NS(=O)(=O)CCCN(O)C(C)=O`, the Activity result with MRC5 is “Non-toxic”; in series [1], 100%. In addition, the result in the series on Staphylococcus aureus, in the series on Plasmodium falciparum, with Aspergillus fumigatus, in the series with Trypanosoma cruzi, with Escherichia coli and in the series on Candida albicans was inactive. Moreover, the outcome in the series on Pseudomonas aeruginosa, in the series with Trypanosoma brucei, in the series with Leishmania infantum and with Trichophyton rubrum was inactive.

For the molecule `CC(=O)N(O)CCCS(=O)(=O)NC(=O)CCc1ccccc1`, the Activity entry was “Non-toxic” in the series with MRC5 and 100% in [1]. The outcome in the series on Staphylococcus aureus, in the series with Plasmodium falciparum, in the series on Aspergillus fumigatus, in the series on Trypanosoma cruzi, in the series with Escherichia coli and with Candida albicans was inactive. The outcome in the series with Pseudomonas aeruginosa, in the series on Trypanosoma brucei, in the series on Leishmania infantum and in the series on Trichophyton rubrum was inactive.
